Legend:
[1] = biological target: T1, Dopamine D1 Receptor (Homo sapiens, UniProt P21728); assay: Dopamine D1 receptor radioligand binding ([3H] SCH-23390); conditions: 10 μM solution; for inhibition at 10 µM: read-out: Percentage Inhibition of Specific Binding, D1 Receptor
T1 construct: expressed in transfected cells; host or cells: CHO cells
Procedure: (§1) The four dihydrotetrabenazine isomers A, B, C and D were subjected to specific binding assays to test their ability to bind to the receptors and transporter proteins described below. The results are set out in Table 5
(c) Dopamine D1 Receptor:
• Reference: Dearry et al., Nature, 347:72-76, (1990) • Source: Human recombinant CHO cells • Ligand: 1.4 nM [3H]

[2] = biological target: T2, Dopamine D2L Receptor (Homo sapiens, UniProt P14416); assay: Dopamine D2L receptor radioligand binding ([3H] Spiperone); conditions: 10 μM solution; for inhibition at 10 µM: read-out: Percentage Inhibition of Specific Binding, D2L Receptor
T2 construct: expressed in transfected cells; host or cells: CHO cells
Procedure: as §1
(d) Dopamine D2L, Receptor:
• Reference: Bunzo et al., Nature, 336:783-787 (1988) • Source: Human recombinant CHO cells • Ligand: 0.16 nM [3H]

[3] = biological target: T3, Dopamine D3 Receptor (Homo sapiens, UniProt P35462); assay: Dopamine D3 receptor radioligand binding ([3H] Spiperone); conditions: 10 μM solution; for inhibition at 10 µM: read-out: Percentage Inhibition of Specific Binding, D3 Receptor
T3 construct: expressed in transfected cells; host or cells: CHO cells
Procedure: as §1
(e) Dopamine D3 Receptor:
• Reference: Sokoloff et al., Nature, 347:146-151, (1990) • Source: Human recombinant CHO cells • Ligand: 0.7 nM [3H]

[4] = test system: Imidazoline I2 (Central) Receptor; assay: Imidazoline I2 (central) receptor radioligand binding ([3H] Idazoxan); design: species or system Wistar rat; conditions: 10 μM solution
Procedure: as §1
(f) Imidazoline I2 (Central) Receptor:
• Reference: Brown et al., Brit. I Pharmacol., 99:803-809, (1990) • Source: Wistar rat cerebral cortex • Ligand: 2 nM [3H] Idazoxan • Vehicle: 1% DMSO • Incubation time/Temp: 30 minutes @ 25° C. • Incubation buffer: 50 mM Tris-HCl, 0.5 mM EDTA, pH 7.4 at 25° C. • Non Specific ligand: 1 μM Idazoxan • Kd: 4 nM • Bmax: 0.14 pmole/mg protein • Specific binding: 85% • Quantitation method: Radioligand binding • Significance criteria: ≧50% of maximum stimulation or inhibition

[5] = biological target: T4, Sigma σ1 Receptor (Homo sapiens, UniProt Q99720); assay: Sigma σ1 receptor radioligand binding ([3H] Haloperidol); conditions: 10 μM solution; for inhibition at 10 µM: read-out: Percentage Inhibition of Specific Binding, σ1 Receptor
T4 construct: endogenous in cells; host or cells: Jurkat cells
Procedure: as §1
• Reference: Ganaphthy et al., Pharmacol. Exp. Ther., 289:251-260, (1999) • Source: Human jurkat cells • Ligand: 8 nM [3H]

[6] = biological target: T5, Sigma σ2 Receptor (Rattus norvegicus, UniProt Q5U3Y7); assay: Sigma σ2 receptor radioligand binding ([3H] Ifenprodil); design: species or system Wistar rat; conditions: 10 μM solution; for inhibition at 10 µM: read-out: Percentage Inhibition of Specific Binding, σ2 Receptor
T5 construct: from tissue; host or cells: Wistar rat brain
T5 sequence (Q5U3Y7 1-176): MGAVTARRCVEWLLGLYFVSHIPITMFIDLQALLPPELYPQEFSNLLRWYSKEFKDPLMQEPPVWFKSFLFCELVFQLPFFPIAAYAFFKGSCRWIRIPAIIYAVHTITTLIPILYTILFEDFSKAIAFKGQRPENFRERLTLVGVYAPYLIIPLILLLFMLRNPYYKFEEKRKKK
Procedure: as §1
• Reference: Hashimoto et al., Eur. J. Pharmacol., 236:159-163, (1993) • Source: Wistar rat brain • Ligand: 3 nM [3H]

[7] = biological target: T6, Serotonin Transporter (SERT) (Homo sapiens, UniProt P31645); assay: Serotonin transporter radioligand binding ([125I] RTI-55); conditions: for inhibition at 10 µM: read-out: Percentage Inhibition of Specific Binding, SERT
T6 construct: expressed in transfected cells; host or cells: HEK-293 cells
Procedure: as §1
(i) Serotonin Transporter (SERT):
• Reference: Gu et al., J. Biol. Chem., 269(10):7124-7130, (1994) • Source: Human recombinant HEK-293 cells • Ligand: 0.15 nM [125I] RTI-55 • Vehicle: 1% DMSO • Incubation time/Temp: 3 hours @ 4° C. • Incubation buffer: 100 mM NaCl, 50 mM Tris HCl, 1 μM Leupeptin, 10 μM PMSF, pH 7.4 • Non Specific ligand: 10 μM Imipramine • Kd: 0.17 nM • Bmax: 0.41 pmole/mg protein • Specific binding: 95% • Quantitation method: Radioligand binding • Significance criteria: ≧50% of maximum stimulation or inhibition

[8] = biological target: T7, Dopamine Transporter (DAT) (Homo sapiens, UniProt Q01959); assay: Dopamine transporter radioligand binding ([125I] RTI-55); conditions: 10 μM solution; for inhibition at 10 µM: read-out: Percentage Inhibition of Specific Binding, DAT
T7 construct: expressed in transfected cells; host or cells: CHO cells
Procedure: as §1
(j) Dopamine Transporter (DAT):
• Reference: Giros et al., Trends Pharmacol. Sci., 14, 43-49 (1993) Gu et al., J. Biol. Chem., 269(10):7124-7130 (1994) • Source: Human recombinant CHO cells • Ligand: 0.15 nM [^125I]

[9] = biological target: T8, α2c Adrenergic receptor (Homo sapiens, UniProt P18825); assay: α2c Adrenergic receptor radioligand binding ([3H] MK-912); conditions: 10 μM solution; for inhibition at 10 µM: read-out: Percentage Inhibition of Specific Binding, α2c receptor
T8 construct: expressed in transfected cells; host or cells: insect Sf9 cells
T8 sequence (P18825 1-462): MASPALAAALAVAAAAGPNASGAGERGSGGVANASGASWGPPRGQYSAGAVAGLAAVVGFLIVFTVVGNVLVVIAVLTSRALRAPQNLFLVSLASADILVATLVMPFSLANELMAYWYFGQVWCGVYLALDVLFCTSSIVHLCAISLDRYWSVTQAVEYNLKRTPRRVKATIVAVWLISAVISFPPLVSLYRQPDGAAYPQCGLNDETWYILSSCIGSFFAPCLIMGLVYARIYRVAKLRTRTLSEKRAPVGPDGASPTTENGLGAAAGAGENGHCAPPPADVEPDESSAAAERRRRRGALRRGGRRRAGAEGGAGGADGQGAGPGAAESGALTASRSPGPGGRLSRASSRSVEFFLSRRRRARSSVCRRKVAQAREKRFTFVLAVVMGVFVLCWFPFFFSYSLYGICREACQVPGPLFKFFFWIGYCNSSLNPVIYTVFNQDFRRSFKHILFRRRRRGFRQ
Procedure: as §1
(k) α2, Adrenergic Receptor
α2c Adrenergic receptor binding activity was determined using the method of Uhlen et al., J. Pharmacol. Exp. Ther. (1994), 271:1558-1565, and the following conditions: • Source: Human recombinant insect Sf9 cells • Ligand: 1 nM [^3H]

[10] = biological target: T9, Serotonin (5-hydroxytryptamine) 5-HT2b Receptor (Homo sapiens, UniProt P41595); assay: 5-HT2b receptor radioligand binding ([3H] LSD); conditions: 10 μM solution; for inhibition at 10 µM: read-out: Percentage Inhibition of Specific Binding, 5-HT2b receptor
T9 construct: expressed in transfected cells; host or cells: CHO-K1 cells

[11] = biological target: T10, Serotonin (5-hydroxytryptamine) 5-HT6 Receptor (Homo sapiens, UniProt P50406); assay: 5-HT6 receptor radioligand binding ([3H] LSD); conditions: 10 μM solution; for inhibition at 10 µM: read-out: Percentage Inhibition of Specific Binding, 5-HT6 receptor
T10 construct: expressed in transfected cells; host or cells: HeLa cells
Excerpt: as §1

T6 sequence (P31645 whole entry): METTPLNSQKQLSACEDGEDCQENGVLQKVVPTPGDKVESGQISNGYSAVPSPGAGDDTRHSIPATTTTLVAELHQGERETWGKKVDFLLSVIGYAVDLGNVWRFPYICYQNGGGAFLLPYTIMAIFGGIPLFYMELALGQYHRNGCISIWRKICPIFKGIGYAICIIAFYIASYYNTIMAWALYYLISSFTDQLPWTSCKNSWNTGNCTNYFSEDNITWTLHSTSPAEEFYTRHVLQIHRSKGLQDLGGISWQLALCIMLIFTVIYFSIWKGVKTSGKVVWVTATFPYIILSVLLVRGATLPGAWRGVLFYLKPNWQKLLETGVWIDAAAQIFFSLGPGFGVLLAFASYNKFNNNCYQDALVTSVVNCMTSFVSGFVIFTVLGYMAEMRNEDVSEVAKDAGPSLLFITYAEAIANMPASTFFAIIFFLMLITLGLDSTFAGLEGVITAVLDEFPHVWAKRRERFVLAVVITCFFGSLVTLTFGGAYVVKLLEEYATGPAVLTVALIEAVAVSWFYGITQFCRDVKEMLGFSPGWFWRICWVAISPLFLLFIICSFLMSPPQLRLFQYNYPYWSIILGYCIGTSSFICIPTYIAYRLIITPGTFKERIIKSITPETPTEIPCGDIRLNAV
T3 sequence (P35462 whole entry): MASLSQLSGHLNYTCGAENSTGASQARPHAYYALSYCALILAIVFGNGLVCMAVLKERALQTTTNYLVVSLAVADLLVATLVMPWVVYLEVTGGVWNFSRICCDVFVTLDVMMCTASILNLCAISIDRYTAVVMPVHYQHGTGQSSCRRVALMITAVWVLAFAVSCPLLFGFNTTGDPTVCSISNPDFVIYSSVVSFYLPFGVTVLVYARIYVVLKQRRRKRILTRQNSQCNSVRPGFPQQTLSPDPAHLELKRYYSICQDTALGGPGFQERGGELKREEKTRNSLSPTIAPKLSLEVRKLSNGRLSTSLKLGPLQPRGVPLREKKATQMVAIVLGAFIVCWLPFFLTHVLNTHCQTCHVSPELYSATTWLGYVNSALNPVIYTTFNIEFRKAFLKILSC
T10 sequence (P50406 whole entry): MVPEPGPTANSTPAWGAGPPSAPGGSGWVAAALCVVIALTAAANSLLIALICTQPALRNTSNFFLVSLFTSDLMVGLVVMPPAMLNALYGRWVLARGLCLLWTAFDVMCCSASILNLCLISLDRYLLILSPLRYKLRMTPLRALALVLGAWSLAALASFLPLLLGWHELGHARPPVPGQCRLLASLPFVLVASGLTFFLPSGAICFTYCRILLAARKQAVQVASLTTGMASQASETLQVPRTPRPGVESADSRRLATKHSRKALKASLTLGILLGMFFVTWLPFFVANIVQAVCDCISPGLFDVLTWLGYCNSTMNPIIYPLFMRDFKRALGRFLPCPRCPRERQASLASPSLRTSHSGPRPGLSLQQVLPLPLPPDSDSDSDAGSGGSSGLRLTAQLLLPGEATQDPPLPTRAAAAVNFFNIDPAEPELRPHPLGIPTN
T9 sequence (P41595 whole entry): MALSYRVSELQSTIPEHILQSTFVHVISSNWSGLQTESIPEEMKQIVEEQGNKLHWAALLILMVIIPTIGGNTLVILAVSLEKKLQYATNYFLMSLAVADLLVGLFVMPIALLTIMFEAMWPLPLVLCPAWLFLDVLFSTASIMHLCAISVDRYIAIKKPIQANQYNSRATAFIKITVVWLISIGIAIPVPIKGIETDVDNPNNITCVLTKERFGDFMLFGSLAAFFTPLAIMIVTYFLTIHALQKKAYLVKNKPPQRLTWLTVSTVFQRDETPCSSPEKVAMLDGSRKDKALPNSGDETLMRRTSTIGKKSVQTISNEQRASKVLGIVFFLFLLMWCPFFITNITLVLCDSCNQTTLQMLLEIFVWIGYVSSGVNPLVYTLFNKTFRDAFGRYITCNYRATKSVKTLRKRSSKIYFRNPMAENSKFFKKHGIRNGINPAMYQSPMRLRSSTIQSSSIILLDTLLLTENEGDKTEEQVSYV
T2 sequence (P14416 whole entry): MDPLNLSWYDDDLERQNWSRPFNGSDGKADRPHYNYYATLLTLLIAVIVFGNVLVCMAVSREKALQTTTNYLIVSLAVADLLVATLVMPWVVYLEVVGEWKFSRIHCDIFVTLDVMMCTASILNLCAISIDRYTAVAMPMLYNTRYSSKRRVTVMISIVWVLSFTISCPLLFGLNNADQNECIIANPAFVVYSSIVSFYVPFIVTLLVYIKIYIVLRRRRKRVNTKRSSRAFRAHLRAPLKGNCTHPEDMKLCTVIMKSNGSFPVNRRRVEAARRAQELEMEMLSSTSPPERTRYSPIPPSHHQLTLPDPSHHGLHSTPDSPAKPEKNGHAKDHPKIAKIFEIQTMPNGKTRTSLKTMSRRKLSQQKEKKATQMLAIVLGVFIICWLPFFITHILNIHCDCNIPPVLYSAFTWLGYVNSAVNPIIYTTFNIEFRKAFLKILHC
T1 sequence (P21728 whole entry): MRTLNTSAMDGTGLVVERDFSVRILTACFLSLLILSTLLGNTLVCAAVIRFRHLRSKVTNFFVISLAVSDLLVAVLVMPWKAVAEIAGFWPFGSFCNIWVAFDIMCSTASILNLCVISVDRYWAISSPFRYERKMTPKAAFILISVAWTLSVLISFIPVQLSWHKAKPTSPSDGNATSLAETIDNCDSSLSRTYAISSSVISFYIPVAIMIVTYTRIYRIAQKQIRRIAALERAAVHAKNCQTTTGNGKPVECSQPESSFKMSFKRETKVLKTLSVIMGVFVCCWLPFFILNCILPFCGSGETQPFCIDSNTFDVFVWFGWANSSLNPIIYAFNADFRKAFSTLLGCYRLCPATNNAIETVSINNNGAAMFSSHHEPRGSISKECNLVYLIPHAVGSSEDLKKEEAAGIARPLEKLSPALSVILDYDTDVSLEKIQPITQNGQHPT
T4 sequence (Q99720 whole entry): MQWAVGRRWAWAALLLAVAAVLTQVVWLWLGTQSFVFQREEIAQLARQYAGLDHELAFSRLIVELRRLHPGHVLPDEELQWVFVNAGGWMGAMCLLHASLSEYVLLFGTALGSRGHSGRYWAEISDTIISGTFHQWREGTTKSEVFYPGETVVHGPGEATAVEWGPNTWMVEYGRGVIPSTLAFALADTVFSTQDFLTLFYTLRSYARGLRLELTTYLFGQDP
T7 sequence (Q01959 whole entry): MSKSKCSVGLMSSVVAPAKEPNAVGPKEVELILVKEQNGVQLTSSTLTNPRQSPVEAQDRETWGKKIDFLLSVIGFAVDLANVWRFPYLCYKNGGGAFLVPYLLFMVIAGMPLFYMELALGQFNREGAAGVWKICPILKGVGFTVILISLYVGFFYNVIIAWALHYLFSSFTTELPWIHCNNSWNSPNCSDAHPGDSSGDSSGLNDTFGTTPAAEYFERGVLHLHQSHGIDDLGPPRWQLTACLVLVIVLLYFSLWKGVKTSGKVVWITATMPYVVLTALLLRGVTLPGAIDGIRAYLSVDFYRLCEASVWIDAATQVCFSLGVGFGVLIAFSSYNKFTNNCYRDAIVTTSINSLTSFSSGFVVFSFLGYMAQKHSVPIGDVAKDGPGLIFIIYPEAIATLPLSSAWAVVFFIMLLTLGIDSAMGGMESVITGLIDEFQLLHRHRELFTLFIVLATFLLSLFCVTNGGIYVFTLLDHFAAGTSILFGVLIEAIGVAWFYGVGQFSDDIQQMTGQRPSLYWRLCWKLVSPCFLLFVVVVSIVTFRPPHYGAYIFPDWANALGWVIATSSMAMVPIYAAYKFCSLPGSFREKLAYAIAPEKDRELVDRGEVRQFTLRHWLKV

Compound | inhibition at 10 µM [1] [%] | inhibition at 10 µM [2] [%] | inhibition at 10 µM [3] [%] | Percentage Inhibition of Specific Binding, I2 Receptor [4] [%] | inhibition at 10 µM [5] [%] | inhibition at 10 µM [6] [%] | inhibition at 10 µM ([7]; 10 μM solution) [%] | inhibition at 10 µM [8] [%] | inhibition at 10 µM [9] [%] | inhibition at 10 µM [10] [%] | inhibition at 10 µM [11] [%] | other results
COc1cc2c(cc1OC)[C@@H]1C[C@@H](O)[C@H](CC(C)C)CN1CC2 (single isomer, unassigned) [Isomer A] | 78 | 87 | 69 | 74 | 48 | 64 | 19 | 3 | 56 | 74 | 51 | –
COc1cc2c(cc1OC)[C@H]1C[C@H](O)[C@@H](CC(C)C)CN1CC2 (single isomer, unassigned) [Isomer B] | 1 | 16 | 7 | 8 | 82 | 64 | 86 | 4 | -6 | 10 | 10 | –
COc1cc2c(cc1OC)C1CC(O)C(CC(C)C)CN1CC2 (single isomer, unassigned) [Isomer C] | 6 | -14 | 9 | 0 | 59 | 61 | 77 | -2 | 3 | 14 | 10 | IC50 ([7]; value in parentheses, unit inferred): 2750 nM
COc1cc2c(cc1OC)[C@H]1C[C@@H](O)[C@H](CC(C)C)CN1CC2 (single isomer, unassigned; isomer d) [Isomer D] | – | – | – | 55 | – | – | – | – | – | – | – | Percentage Inhibition of Specific Binding, D1 Receptor [1]: 38%; Percentage Inhibition of Specific Binding, D2L Receptor [2]: 58%; Percentage Inhibition of Specific Binding, D3 Receptor [3]: 63%; Percentage Inhibition of Specific Binding, σ1 Receptor [5]: 82%; Percentage Inhibition of Specific Binding, σ2 Receptor [6]: 69%; Percentage Inhibition of Specific Binding, SERT ([7]; 10 μM solution): 8%; Percentage Inhibition of Specific Binding, DAT [8]: 2%; Percentage Inhibition of Specific Binding, α2c receptor [9]: 74%; Percentage Inhibition of Specific Binding, 5-HT2b receptor [10]: 43%; Percentage Inhibition of Specific Binding, 5-HT6 receptor [11]: 41%

Source: US20110257220A1, “3,11 b-cis-Dihydrotetrabenazine for the Treatment of Schizophrenia and Other Psychoses” (CAMBRIDGE LABORATORIES (IRELAND) LIMITED, priority 2005, published 2011)
